Among the data in PubChem BioAssay AID1918931 (Molecular Pharmacology Branch, DTP, NCI, 2023) are viability, T/C and IC50 values, retold here.

pIC50: −log10 of the molar value. Several values for one entry are separate records, joined by “and”; a condition that tells them apart may be missing. Equal entries are not always repeated.

This test relates to 138582-337-R-J1-PDC complex spheroid viability. As to the kind of experiment: Anticancer human tumor 138582-337-R-J1-PDC patient-derived Merkel cell tumor cell line growth inhibition. The following applies: for viability, T/C: stronger effect = lower value. The text has this:
Multicellular complex tumor spheroid response to LSD1 Inhibitor Iadademstat in combination with a variety of drugs and investigational agents in selected tumor cell lines
The current study was undertaken to assess response to LSD1 inhibitors in combination with standard-of-care drugs and investigational agents in solid tumor complex spheroid models as well as in the K-562 leukemia. Complex spheroids include a stromal component modeled by human endothelial cells (HUVEC) and fibroblasts modeled by human mesenchymal stem cells (MSCs). The concentration ranges selected for each drug and investigational agent were based upon clinically achievable concentrations if the clinical Cmax of the agent was known.
Compounds. The drugs and investigational agents used in this study are listed on Table 1. All of the agents used, including staurosporine (NSC755774) and gemcitabine (NSC613327), were obtained from the Developmental Therapeutics Program, NCI. FDA-approved anticancer drugs are available from the NCI at http://dtp.nci.nih.gov/branches/dscb/oncology_drugset_explanation.html. Drugs and investigational agents were >95% pure by proton nuclear magnetic resonance (NMR) and liquid chromatography/mass spectrometry (LC/MS). Stock solutions were prepared at 400x in DMSO, stored at -70 degrees C, and diluted in fresh medium prior to their use. The final concentration of DMSO in cell culture wells never exceeded 0.25% (v/v). The FDA-approved anticancer drug set is available from the Developmental Therapeutics Program at https://dtp.cancer.gov/organization/dscb/obtaining/available_plates.htm. All drugs and investigational agents were tested over a range starting from a high concentration at or near the clinical Cmax and decreasing in half-log increments. If the clinical Cmax for an agent had not been determined, the highest concentration tested was 10 microM.
Cell Lines. The patient-derived cancer cell (PDC) lines: 292921-168-R-J2-PDC, K24384-001-R-PDC, and 521955-158-R2-J5-PDC pancreatic carcinomas, 556581-035-R-J1 ovarian carcinoma, 324938-238-R-J1-PDC, 855422-203-R-J1-PDC and 883617-216-R-J1-PDC urothelial bladder carcinomas, 743489-274-T-PDC renal cell carcinoma, 138582-R-J1 Merkel cell tumor, K60290-347-R-J1 and K57222-313-R-J1-PDC glioblastomas, 653999-131-R-J2-PDC, LG0703-F948-PDC, and 349418-098-R-PDC non-small cell lung carcinomas, 885512-296-R-J2-PDC, 171881-019-R-J1-PDC breast carcinomas and 186277-243-T-J2-PDC and 233499-124-R-J2-PDC colon carcinomas were obtained from the NCI Patient-Derived Models Repository (PDMR, https://pdmr.cancer.gov). The established cell lines NCI/ADR-RES (RRID:CVCL_14520 and OVCAR-5 (RRID:CVCL_1628) ovarian carcinomas, 786-O (RRID:CVCL_1051) and A498 (RRID:CVCL_A498) renal cell carcinoma, NCI-H211 (ATCC, cat. CRL-5824; RRID:CVCL_1529), NCI-H196 (ATCC, cat. CRL-5823, RRID:CVCL_1509), SW 1271 (ATCC, cat. CRL-2177, RRID:CVCL_1716) and NCI-H1876 (ATCC, cat. CRL-5902, RRID:CVCL_1503) small cell lung carcinomas, MDA-MB-231 (RRID:CVCL_0062) and MDA-MB-468 (RRID:CVCL_0419)breast carcinomas (10-12). Pooled donor human umbilical vein endothelial cells (HUVEC, Lonza, cat. CC-2519) and human mesenchymal stem cells (hMSC, Lonza, cat. PT-2501) were purchased from Lonza (Walkersville, MD).
Cell Culture. All cells were maintained in an incubator at 37 degrees C and 5% CO2 with 95% humidity. The PDC lines were cultured according to standard operating procedures established by the NCI PDMR (https://pdmr.cancer.gov). Briefly all PDCs were thawed and cultured in Matrigel-coated flasks prepared with a working solution of 1X Ham's F-12 nutrient mix, without supplementation (Invitrogen, Waltham, MA, cat. 11765054), 100 U/mL penicillin-streptomycin (Invitrogen, cat. 15140122), and 2.5% Matrigel (Corning Inc., Corning, NY, cat. 354248) for the first three passages. […]

Setting [1] is: curve of first compound, second compound 0.1 µM.
The mark [2] stands for this setting: curve of first compound, second compound 0.316 µM.
The mark [3] stands for this setting: curve of first compound, second compound 1 µM.
Where [4] appears, read: curve of first compound, second compound 3.16 µM.
Setting [5] is: curve of first compound, second compound 10 µM.
Setting [6] is: second compound 0.1 µM, first compound 0.00316 µM.
Setting [7] is: second compound 0.1 µM, first compound 0.01 µM.
Setting [8] is: second compound 0.1 µM, first compound 0.0316 µM.
Where [9] appears, read: second compound 0.1 µM, first compound 0.1 µM.
Setting [10] is: second compound 0.316 µM, first compound 0.00316 µM.
Where [11] appears, read: second compound 0.316 µM, first compound 0.01 µM.
Setting [12] is: second compound 0.316 µM, first compound 0.0316 µM.
Setting [13] is: second compound 0.316 µM, first compound 0.1 µM.
[14] abbreviates: second compound 1 µM, first compound 0.00316 µM.
The mark [15] stands for this setting: second compound 1 µM, first compound 0.01 µM.
[16] abbreviates: second compound 1 µM, first compound 0.0316 µM.
[17] abbreviates: second compound 1 µM, first compound 0.1 µM.
Where [18] appears, read: second compound 3.16 µM, first compound 0.00316 µM.
[19] abbreviates: second compound 3.16 µM, first compound 0.01 µM.
[20] abbreviates: second compound 3.16 µM, first compound 0.0316 µM.
Where [21] appears, read: second compound 3.16 µM, first compound 0.1 µM.
The mark [22] stands for this setting: second compound 10 µM, first compound 0.00316 µM.
The mark [23] stands for this setting: second compound 10 µM, first compound 0.01 µM.
[24] abbreviates: second compound 10 µM, first compound 0.0316 µM.
The mark [25] stands for this setting: second compound 10 µM, first compound 0.1 µM.
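Further: spheroids exposed to agents for 7 days.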

`Cn1ncnc1C1c2n[nH]c(=O)c3cc(F)cc(c23)NC1c1ccc(F)cc1` (stereo unspecified): the viability, T/C by setting is: (compound 0.000316 µM) 96.7% and 103%; (compound 0.001 µM) 93.5% and 95.9%; (compound 0.00316 µM) 83.5% and 99.5%; (compound 0.01 µM) 86.7% and 92.9%; (compound 0.0316 µM) 94.4% and 70.4%; (compound 0.1 µM) 91.1% and 67.1%. In addition, the pIC50 (curve of compound) is under 7.00.

For `CC(C)CC(NC(=O)CNC(=O)c1cc(Cl)ccc1Cl)B1OC(=O)CC(CC(=O)O)(C(=O)O)O1` (stereo unspecified), the viability, T/C (compound 0.000316 µM) is 105% and 94.4%; the viability, T/C (compound 0.001 µM) is 102% and 99.3%; the viability, T/C (compound 0.00316 µM) was 110% and 91.3%; the viability, T/C (compound 0.01 µM) is 30.4% and 42.1%; the viability, T/C (compound 0.0316 µM) was 4.94% and 1.75%; the viability, T/C (compound 0.1 µM) was 0.38% and 0.44%. Besides, the pIC50 (curve of compound) was 8.13 and 8.08.

As to `O=C(C=Cn1cnc(-c2cc(C(F)(F)F)cc(C(F)(F)F)c2)n1)NNc1cnccn1` + NC1CC1c1ccc(-c2cccc(O)c2)cc1, the pIC50 is, setting by setting: under setting [1], 7.94; under setting [2], 7.98; under setting [3], 8.23; under setting [4], 8.23; under setting [5], 7.80. Besides, the viability, T/C runs as follows: under setting [6], 60.7%; under setting [7], 53%; under setting [8], 27.8%; under setting [9], 17.4%; (second compound 0.1 µM, first compound 0.316 µM) 16.3%; (second compound 0.1 µM, first compound 1 µM) 15.7%. The viability, T/C was 56.7% under setting [10]; 50.4% under setting [11]; 28.1% under setting [12]; 16.2% under setting [13]; 17.3% (second compound 0.316 µM, first compound 0.316 µM); 21% (second compound 0.316 µM, first compound 1 µM). Further, the viability, T/C is, setting by setting: under setting [14], 55.2%; under setting [15], 44.8%; under setting [16], 33.8%; under setting [17], 21.1%; (second compound 1 µM, first compound 0.316 µM) 18.6%; (second compound 1 µM, first compound 1 µM) 23.8%. For the same molecule, the viability, T/C under setting [18] is 55.2%; the viability, T/C under setting [19] is 46%; the viability, T/C under setting [20] is 29.3%; the viability, T/C under setting [21] was 22.1%; the viability, T/C (second compound 3.16 µM, first compound 0.316 µM) is 22.6%; the viability, T/C (second compound 3.16 µM, first compound 1 µM) was 17.3%. The viability, T/C reads like this: under setting [22], 55.4%; under setting [23], 53.1%; under setting [24], 44.6%; under setting [25], 35.1%; (second compound 10 µM, first compound 0.316 µM) 24.9%; (second compound 10 µM, first compound 1 µM) 32.2%.

As to `CC(C)CC(NC(=O)CNC(=O)c1cc(Cl)ccc1Cl)B1OC(=O)CC(CC(=O)O)(C(=O)O)O1` (stereo unspecified) + NC1CC1c1ccc(-c2cccc(O)c2)cc1, the pIC50 reads like this: under setting [1], 7.93; under setting [2], 8.07; under setting [3], 8.08; under setting [4], 8.00; under setting [5], 8.02. Moreover, the viability, T/C is 94.3% (second compound 0.1 µM, first compound 0.000316 µM); 98.9% (second compound 0.1 µM, first compound 0.001 µM); 101% under setting [6]; 58.3% under setting [7]; 1.47% under setting [8]; 0.24% under setting [9]. For the same molecule, the viability, T/C reads like this: (second compound 0.316 µM, first compound 0.000316 µM) 80.7%; (second compound 0.316 µM, first compound 0.001 µM) 95%; under setting [10], 115%; under setting [11], 42.8%; under setting [12], 4.55%; under setting [13], 0.6%. The viability, T/C reads like this: (second compound 1 µM, first compound 0.000316 µM) 92.5%; (second compound 1 µM, first compound 0.001 µM) 112%; under setting [14], 140%; under setting [15], 38.1%; under setting [16], 2.09%; under setting [17], 0.29%. The viability, T/C is, setting by setting: (second compound 3.16 µM, first compound 0.000316 µM) 113%; (second compound 3.16 µM, first compound 0.001 µM) 104%; under setting [18], 126%; under setting [19], 50.3%; under setting [20], 2.37%; under setting [21], 0.26%. The viability, T/C is, setting by setting: (second compound 10 µM, first compound 0.000316 µM) 110%; (second compound 10 µM, first compound 0.001 µM) 139%; under setting [22], 129%; under setting [23], 46.3%; under setting [24], 0.57%; under setting [25], 0.27%.

On to `O=C(c1cc(Cc2n[nH]c(=O)c3ccccc23)ccc1F)N1CCN(C(=O)C2CC2)CC1`, for which the viability, T/C was 106% and 90% (compound 0.0316 µM); 71.7% and 93.4% (compound 0.1 µM); 96.6% and 98.8% (compound 0.316 µM); 83.5% and 71.4% (compound 1 µM); 78% and 57.2% (compound 3.16 µM); 82.9% and 63.8% (compound 10 µM). For the same molecule, the pIC50 (curve of compound) is under 5.00.

The viability, T/C is the ratio of treated to control. In general, pIC50 refers to the negative decadic logarithm of the IC50, by convention in mol/L.
